Values of other authors in patent US20030224036A1, “Hla class I a2 tumor associated antigen peptides and vaccine compositions” (priority 1999, published 2003).

System: PBMC of cervical cancer patients

aKXVAAWTLKAAa-NH2 [PADRE, a=D-alanine, X=cyclohexylalanine]
responding patients (95% interval 10-65%): 33%
safety in patients (recurrent or residual cervical carcinoma): favorable safety profile
